Key:
[1] = system: G. vaginalis; test: broth microdilution assay to determine MIC and sub-MICs of BPO; assay type: cell-based; settings: Gardnerella vaginalis, DMSO solution of BPO, read-out: concentration required to completely inhibit the growth of G. vaginalis (MIC)
Excerpt: Experimental Details: At a first step of the experiment, a broth microdilution assay was used to determine MIC and sub-MICs of BPO against G. vaginalis, a leading microorganism responsible for Bacterial Vaginosis. […] Note that in this test, the prototype of the vaginal gel was not used, but a DMSO solution of PBO (solution required for 96-well microplate) was used. Consequently, the inhibitory concentration for G. vaginalis found in this test cannot be compared with the inhibitory concentrations for BPO-gel as found in the previous experiments (Xu et al., 2013).

[2] = system: G. vaginalis biofilm; test: biofilm production inhibition, colorimetric biofilm staining; assay type: cell-based, Gardnerella vaginalis
Procedure: As a second step, the concentrations, which inhibited biofilm production, were determined. Several concentrations of BPO were tested: 0, 31.25, 62.5, 125, and 250 μg/mL. A colorimetric method was used for biofilm staining and to determine the biofilm integrity percent after the treatment. Note that in this test, the prototype of the vaginal gel was not used, but a DMSO solution of PBO (solution required for 96-well microplate) was used. Consequently, the inhibitory concentration for G. vaginalis found in this test cannot be compared with the inhibitory concentrations for BPO-gel as found in the previous experiments (Xu et al., 2013).

[3] = system: G. vaginalis; test: bacterial cells viability under sub-MIC BPO treatment; assay type: cell-based, Gardnerella vaginalis; settings: highest sub-MIC concentration of 250 μg/mL

- MIC [1]: > 250 µg/mL
Compound: O=C(OOC(=O)c1ccccc1)c1ccccc1 [BPO, Benzoyl peroxide]
- biofilm prevention ([2]; 125 μg/mL BPO): more than 40%
- inhibition at 250 µg/mL ([2]; Gardnerella vaginalis, 250 μg/mL BPO (sub-MIC), compared with the control, read-out: biofilm formation inhibited): ~80%
- biofilm integrity ([2]; around 250 μg/mL BPO): 20%
- bacterial cells viability [3]: not influenced

Source: patent US20180280340A1, “METHOD OF TREATING AND PREVENTING INFECTIONS” (priority 2017, published 2018)
